Laboratory results: ChEMBL document CHEMBL4507291 (2021)

Legend:
[1] = target: Ribosomal protein S6 kinase alpha-6 (Homo sapiens) (UniProt Q9UK32); experiment: RPS6KA6 (RSK4) Kinase screen; conditions: Compound concentration 1.0 uM
[2] = target: T1, Ephrin type-B receptor 4 (Homo sapiens) (UniProt P54760); experiment: EPHB4 Kinase screen; conditions: Compound concentration 1.0 uM
T1 sequence (whole entry): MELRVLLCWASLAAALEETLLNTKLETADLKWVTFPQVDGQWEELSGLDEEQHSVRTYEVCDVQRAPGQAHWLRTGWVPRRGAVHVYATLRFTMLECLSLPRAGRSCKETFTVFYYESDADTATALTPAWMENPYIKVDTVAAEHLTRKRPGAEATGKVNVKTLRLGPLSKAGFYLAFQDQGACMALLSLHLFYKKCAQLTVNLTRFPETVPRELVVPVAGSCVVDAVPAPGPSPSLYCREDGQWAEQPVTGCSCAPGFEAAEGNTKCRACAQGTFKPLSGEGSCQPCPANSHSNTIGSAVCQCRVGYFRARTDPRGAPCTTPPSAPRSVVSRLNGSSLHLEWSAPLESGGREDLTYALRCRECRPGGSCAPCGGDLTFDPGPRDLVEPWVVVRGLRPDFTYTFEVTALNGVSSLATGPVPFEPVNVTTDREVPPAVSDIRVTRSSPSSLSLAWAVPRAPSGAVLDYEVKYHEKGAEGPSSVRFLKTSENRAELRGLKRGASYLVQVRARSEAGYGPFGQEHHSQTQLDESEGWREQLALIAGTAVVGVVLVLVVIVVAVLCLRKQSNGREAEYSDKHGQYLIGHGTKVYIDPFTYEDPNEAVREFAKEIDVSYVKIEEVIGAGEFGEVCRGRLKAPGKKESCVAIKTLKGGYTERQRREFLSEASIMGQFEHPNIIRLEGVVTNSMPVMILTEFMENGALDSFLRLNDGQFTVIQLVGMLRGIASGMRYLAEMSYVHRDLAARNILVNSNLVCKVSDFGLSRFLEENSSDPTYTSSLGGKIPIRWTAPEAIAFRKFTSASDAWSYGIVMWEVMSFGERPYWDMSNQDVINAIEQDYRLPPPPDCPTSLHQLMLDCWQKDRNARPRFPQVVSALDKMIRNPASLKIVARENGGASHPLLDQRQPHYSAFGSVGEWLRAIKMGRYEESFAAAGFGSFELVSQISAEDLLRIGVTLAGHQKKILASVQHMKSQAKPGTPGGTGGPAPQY

[3] = organism: Rattus norvegicus; experiment: Glutamate, NMDA, Polyamine Eurofins-Panlabs radioligand binding assay; type: protein-complex assay; design: ligand concentration 2 nM; conditions: Compound concentration 10.0 uM
[4] = target: Casein kinase I isoform gamma-3 (Homo sapiens) (UniProt Q9Y6M4); experiment: CSNK1G3 (CK1 gamma 3) Kinase screen; conditions: Compound concentration 1.0 uM
[5] = target: Tyrosine-protein kinase ABL1 (Homo sapiens) (UniProt P00519); experiment: ABL1 Kinase screen; conditions: Compound concentration 1.0 uM
[6] = target: Mitogen-activated protein kinase 3 (Homo sapiens) (UniProt P27361); experiment: Inhibition of Protein Serine/Threonine Kinase, MAPK3 (ERK1) at 10 µM in the Eurofins-Panlabs enzyme assay (Eurofins_assay_171000); conditions: Compound concentration 10.0 uM
[7] = target: T2, Serine/threonine-protein kinase D2 (Homo sapiens) (UniProt Q9BZL6); experiment: PRKD2 (PKD2) Kinase screen; conditions: Compound concentration 1.0 uM
T2 sequence (whole entry): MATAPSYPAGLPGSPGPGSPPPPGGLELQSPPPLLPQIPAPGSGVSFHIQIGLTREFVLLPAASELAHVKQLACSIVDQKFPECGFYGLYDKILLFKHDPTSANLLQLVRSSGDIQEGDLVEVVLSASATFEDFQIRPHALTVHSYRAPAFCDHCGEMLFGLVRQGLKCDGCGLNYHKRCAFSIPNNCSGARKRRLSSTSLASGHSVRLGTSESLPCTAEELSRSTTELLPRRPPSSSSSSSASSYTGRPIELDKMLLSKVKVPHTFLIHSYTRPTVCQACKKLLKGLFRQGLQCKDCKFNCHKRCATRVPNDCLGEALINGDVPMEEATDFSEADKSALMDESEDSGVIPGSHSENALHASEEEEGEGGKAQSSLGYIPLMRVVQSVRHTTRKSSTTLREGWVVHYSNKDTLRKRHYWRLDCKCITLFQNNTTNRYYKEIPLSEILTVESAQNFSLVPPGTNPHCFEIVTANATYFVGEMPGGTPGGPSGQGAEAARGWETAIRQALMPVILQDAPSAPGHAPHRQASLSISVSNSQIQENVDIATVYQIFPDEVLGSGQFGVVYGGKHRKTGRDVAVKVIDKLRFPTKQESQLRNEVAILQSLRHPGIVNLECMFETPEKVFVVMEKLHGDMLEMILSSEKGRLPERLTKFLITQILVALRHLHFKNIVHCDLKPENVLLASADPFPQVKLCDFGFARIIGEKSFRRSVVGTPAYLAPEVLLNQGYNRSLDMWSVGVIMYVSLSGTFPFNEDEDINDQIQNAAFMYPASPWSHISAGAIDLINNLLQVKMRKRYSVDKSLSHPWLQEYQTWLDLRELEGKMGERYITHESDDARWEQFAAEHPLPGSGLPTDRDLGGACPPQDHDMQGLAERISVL

[8] = target: Cyclin-dependent kinase 5/CDK5 activator 1 (Homo sapiens) (UniProt Q00535+Q15078); experiment: CDK5/p25 Kinase screen; type: protein-complex assay; conditions: Compound concentration 1.0 uM
[9] = target: Ephrin type-A receptor 2 (Homo sapiens) (UniProt P29317); experiment: EPHA2 Kinase screen; conditions: Compound concentration 1.0 uM
[10] = target: T3, Muscarinic acetylcholine receptor M5 (Homo sapiens) (UniProt P08912); experiment: Inhibition of Muscarinic M5 at 10 µM in the Eurofins-Panlabs radioligand binding assay (Eurofins_assay_253010); design: ligand concentration 0.8 nM; conditions: Compound concentration 10.0 uM
T3 sequence (whole entry): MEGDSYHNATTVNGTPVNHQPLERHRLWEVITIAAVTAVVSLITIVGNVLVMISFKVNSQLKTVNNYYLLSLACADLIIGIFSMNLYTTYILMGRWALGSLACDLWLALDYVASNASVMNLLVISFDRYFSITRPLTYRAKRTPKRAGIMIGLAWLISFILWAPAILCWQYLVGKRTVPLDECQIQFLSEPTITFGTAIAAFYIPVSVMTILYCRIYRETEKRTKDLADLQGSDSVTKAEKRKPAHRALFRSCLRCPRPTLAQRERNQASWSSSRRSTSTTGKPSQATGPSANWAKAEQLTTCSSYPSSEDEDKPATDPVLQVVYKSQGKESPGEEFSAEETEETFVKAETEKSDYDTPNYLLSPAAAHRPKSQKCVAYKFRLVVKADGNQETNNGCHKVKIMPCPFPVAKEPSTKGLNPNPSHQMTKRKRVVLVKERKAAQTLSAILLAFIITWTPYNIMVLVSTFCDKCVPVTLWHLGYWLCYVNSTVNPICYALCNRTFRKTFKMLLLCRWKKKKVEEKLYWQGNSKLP

[11] = test system: Proto-oncogene tyrosine-protein kinase receptor Ret (Homo sapiens), P07949 [Y791F]; experiment: RET Y791F Kinase screen; conditions: Compound concentration 1.0 uM
[12] = target: Homeodomain-interacting protein kinase 1 (Homo sapiens) (UniProt Q86Z02); experiment: HIPK1 (Myak) Kinase screen; conditions: Compound concentration 1.0 uM
[13] = test system: Epidermal growth factor receptor (Homo sapiens), P00533 [T790M]; experiment: EGFR (ErbB1) T790M Kinase screen; conditions: Compound concentration 1.0 uM

Measured: inhibition

Sequence of Cyclin-dependent kinase 5/CDK5 activator 1 (Homo sapiens) (Q00535 whole entry): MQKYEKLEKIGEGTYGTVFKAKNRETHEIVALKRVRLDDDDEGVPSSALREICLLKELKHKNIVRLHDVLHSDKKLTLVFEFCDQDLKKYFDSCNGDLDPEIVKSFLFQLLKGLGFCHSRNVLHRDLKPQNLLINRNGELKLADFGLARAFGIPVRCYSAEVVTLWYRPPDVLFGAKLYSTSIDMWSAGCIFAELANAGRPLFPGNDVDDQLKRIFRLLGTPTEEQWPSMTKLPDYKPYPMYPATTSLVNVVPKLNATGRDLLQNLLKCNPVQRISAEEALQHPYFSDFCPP
Sequence of Cyclin-dependent kinase 5/CDK5 activator 1 (Homo sapiens) (Q15078 99-307 partner limits assumed): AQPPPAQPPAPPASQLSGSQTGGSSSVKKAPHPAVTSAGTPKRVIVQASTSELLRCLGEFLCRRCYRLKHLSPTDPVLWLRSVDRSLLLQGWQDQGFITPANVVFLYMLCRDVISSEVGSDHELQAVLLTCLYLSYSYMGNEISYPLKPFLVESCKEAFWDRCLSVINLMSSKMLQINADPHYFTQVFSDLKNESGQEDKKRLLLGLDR
Sequence of Epidermal growth factor receptor (Homo sapiens), P00533 [T790M] (P00533 whole entry T790M): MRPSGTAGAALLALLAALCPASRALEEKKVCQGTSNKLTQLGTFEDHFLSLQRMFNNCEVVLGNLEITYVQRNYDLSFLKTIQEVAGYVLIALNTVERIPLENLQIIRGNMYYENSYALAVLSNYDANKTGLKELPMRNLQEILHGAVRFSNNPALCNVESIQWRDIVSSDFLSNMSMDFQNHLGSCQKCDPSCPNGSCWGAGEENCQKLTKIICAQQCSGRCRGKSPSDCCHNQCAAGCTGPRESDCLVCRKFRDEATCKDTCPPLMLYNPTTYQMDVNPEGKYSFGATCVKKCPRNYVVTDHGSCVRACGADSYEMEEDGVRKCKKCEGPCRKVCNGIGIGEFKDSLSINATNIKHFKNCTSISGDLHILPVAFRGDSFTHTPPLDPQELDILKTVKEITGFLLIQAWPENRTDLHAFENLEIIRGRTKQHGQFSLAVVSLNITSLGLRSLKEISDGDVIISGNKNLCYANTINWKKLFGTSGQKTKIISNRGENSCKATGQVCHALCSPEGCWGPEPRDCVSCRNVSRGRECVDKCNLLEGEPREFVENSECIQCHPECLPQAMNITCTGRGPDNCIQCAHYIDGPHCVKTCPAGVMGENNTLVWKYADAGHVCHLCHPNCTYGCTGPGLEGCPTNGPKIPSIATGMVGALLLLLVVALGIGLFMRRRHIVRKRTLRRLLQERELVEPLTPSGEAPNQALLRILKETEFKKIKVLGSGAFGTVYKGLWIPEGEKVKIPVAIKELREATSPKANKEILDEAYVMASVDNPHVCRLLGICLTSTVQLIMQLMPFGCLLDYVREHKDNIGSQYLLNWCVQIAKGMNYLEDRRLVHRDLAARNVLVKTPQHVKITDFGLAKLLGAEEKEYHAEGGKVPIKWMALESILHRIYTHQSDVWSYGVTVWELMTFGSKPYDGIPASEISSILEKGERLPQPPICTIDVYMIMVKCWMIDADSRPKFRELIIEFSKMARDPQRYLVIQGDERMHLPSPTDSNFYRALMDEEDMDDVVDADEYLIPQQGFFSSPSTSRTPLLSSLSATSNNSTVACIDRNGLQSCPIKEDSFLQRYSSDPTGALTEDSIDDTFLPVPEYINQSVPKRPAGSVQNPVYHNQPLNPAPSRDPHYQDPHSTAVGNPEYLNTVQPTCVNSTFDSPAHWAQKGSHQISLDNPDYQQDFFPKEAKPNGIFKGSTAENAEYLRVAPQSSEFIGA
Sequence of Mitogen-activated protein kinase 3 (Homo sapiens) (P27361 whole entry): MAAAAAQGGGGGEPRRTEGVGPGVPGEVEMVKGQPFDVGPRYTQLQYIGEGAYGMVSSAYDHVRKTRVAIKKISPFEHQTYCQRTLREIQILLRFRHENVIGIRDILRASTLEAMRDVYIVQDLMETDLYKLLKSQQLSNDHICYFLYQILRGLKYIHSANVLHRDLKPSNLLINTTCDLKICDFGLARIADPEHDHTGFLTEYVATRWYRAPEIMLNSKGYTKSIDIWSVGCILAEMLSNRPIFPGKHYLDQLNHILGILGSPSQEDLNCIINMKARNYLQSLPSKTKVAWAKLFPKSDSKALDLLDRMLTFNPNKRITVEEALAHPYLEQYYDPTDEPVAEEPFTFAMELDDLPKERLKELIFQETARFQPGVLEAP
Sequence of Casein kinase I isoform gamma-3 (Homo sapiens) (Q9Y6M4 whole entry, looked up, canonical isoform): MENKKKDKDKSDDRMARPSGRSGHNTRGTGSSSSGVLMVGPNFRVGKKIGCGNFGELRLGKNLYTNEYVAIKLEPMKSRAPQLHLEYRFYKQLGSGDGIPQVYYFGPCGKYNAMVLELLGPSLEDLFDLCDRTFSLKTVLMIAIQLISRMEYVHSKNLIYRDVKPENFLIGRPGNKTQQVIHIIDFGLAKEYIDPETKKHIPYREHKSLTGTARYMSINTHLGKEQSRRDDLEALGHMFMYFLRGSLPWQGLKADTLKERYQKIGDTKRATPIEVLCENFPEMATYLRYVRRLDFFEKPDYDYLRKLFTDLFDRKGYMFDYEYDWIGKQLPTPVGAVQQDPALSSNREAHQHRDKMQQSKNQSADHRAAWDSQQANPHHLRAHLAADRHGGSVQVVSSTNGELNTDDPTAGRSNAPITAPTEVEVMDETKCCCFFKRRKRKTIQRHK
Sequence of Tyrosine-protein kinase ABL1 (Homo sapiens) (P00519 whole entry): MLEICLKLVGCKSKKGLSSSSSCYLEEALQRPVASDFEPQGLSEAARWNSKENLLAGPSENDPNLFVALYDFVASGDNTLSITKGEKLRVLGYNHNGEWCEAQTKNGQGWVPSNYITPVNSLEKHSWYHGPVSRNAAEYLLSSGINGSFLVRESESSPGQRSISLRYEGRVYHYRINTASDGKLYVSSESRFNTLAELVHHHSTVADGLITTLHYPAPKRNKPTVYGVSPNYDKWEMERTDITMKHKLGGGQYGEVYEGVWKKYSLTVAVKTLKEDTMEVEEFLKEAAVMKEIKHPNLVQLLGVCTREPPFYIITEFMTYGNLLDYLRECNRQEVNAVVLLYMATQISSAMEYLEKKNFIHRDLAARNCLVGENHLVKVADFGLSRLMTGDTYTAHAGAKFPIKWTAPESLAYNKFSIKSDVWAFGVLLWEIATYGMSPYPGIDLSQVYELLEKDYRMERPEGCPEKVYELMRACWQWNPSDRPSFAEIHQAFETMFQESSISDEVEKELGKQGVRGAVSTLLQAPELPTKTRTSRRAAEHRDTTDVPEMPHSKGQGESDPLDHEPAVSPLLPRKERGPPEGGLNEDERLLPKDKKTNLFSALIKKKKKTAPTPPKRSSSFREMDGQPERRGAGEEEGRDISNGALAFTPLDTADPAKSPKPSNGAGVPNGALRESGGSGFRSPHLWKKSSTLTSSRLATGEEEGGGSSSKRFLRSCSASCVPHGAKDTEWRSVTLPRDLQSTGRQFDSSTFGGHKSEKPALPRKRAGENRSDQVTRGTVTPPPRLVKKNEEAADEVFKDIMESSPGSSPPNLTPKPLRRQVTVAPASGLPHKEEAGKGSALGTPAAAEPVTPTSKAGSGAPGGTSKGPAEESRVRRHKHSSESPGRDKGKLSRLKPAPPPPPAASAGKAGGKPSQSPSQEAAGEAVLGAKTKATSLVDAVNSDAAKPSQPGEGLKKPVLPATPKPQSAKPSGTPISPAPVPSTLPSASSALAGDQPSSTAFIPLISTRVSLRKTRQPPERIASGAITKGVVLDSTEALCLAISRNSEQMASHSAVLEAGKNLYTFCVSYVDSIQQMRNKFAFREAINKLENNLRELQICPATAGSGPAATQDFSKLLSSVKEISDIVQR
Sequence of Ribosomal protein S6 kinase alpha-6 (Homo sapiens) (Q9UK32 whole entry): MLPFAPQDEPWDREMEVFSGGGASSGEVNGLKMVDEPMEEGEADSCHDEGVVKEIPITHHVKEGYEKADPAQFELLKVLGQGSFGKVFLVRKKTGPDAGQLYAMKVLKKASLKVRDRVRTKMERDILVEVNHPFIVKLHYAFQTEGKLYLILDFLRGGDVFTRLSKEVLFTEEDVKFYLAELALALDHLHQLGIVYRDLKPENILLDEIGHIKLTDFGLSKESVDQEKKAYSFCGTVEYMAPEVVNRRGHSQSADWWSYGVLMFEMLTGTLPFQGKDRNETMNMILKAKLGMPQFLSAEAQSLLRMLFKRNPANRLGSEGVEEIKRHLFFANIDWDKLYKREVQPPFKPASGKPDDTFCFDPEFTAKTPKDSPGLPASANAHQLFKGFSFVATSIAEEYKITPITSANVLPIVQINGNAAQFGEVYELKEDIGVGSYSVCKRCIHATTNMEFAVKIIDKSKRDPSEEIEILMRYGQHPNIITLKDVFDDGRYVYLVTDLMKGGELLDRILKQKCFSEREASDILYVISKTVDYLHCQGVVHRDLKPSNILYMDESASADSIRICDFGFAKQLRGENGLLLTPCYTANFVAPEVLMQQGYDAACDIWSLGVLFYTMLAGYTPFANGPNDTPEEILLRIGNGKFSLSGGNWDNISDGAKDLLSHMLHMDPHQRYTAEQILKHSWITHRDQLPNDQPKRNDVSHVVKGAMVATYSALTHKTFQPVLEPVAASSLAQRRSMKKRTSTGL

C[C@@H]1CN(c2cc(-c3n[nH]c4ccc(OC5(C)CC5)cc34)ncn2)C[C@H](C)O1 [MLi-2]
inactive: [1] 3.23% | [2] 2.23% | [3] 19% | [4] 2.15% | [5] 1.09% | [6] 33% | [7] 19% | [8] -2.71% | [9] -4.26% | [10] -8% | [11] 5.35% | [12] 3.08% | [13] 3.93%
